Legend:
[1] = 1 mg/ml ramipril solution in buffer, principal impurity after 12 hours at 50° C.; format: physicochemical
Procedure: An experiment was carried out in which 50 mg of ramipril was dispersed in 50 ml water and known concentrations of buffer were added. The solutions were placed in a stoppered bottle and stored for 12 hours at 50° C.

[2] = molecular target: angiotensin converting enzyme (ACE) (Homo sapiens, UniProt P12821); settings: cited from earlier work
[3] = buffer Sodium carbonate 0.24 mg/ml
[4] = buffer Sodium carbonate 0.74 mg/ml
[5] = buffer Sodium carbonate 1.00 mg/ml
[6] = buffer Sodium citrate 0.72 mg/ml
[7] = buffer Sodium citrate 1.00 mg/ml
[8] = buffer Sodium citrate 1.90 mg/ml

Chain of angiotensin converting enzyme (ACE) (P12821 30-1306, species assumed): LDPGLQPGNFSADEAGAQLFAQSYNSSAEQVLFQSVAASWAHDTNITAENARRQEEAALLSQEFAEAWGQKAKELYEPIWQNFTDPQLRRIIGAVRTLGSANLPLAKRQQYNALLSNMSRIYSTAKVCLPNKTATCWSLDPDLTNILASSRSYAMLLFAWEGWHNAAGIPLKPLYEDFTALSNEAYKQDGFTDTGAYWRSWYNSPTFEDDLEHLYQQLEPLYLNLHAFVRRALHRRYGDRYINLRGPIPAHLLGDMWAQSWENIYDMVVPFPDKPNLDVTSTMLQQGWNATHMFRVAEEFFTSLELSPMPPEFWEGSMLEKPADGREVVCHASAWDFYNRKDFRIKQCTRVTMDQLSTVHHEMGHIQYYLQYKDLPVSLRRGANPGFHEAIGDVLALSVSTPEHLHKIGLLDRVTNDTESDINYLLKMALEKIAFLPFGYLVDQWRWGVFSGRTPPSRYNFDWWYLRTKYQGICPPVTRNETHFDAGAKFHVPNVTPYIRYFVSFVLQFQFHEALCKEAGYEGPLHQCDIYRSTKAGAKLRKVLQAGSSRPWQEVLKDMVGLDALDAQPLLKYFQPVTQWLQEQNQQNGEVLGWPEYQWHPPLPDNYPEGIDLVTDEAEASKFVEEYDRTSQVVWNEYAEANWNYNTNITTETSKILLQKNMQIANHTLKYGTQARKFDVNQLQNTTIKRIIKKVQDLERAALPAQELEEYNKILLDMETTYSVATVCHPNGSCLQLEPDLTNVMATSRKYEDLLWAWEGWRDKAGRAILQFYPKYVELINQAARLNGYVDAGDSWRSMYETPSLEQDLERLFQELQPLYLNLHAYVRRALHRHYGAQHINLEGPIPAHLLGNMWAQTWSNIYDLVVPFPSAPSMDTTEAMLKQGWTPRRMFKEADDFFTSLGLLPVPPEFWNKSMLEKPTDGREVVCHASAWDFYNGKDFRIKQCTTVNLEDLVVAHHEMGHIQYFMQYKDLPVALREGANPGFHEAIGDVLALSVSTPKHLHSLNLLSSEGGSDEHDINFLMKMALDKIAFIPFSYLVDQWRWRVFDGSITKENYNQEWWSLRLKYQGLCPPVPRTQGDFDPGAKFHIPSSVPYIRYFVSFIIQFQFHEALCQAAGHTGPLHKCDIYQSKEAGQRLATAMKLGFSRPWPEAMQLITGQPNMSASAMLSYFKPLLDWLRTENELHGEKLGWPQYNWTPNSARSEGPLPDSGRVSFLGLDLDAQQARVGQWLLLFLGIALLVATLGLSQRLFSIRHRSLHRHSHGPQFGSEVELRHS

With CCOC(=O)[C@H](CCc1ccccc1)N[C@@H](C)C(=O)N1[C@H](C(=O)O)C[C@@H]2CCC[C@@H]21 [Ramipril, (2S,3aS,6aS)-1[(S)-N-[(S)-1-carboxy-3-phenylpropyl]alanyl] octahydrocyclopenta[b]pyrrole-2-carboxylic acid, 1-ethyl ester] the “Impurity D” value ([1]; buffer L arginine 1.44 mg/ml) was 0.16%, the “Impurity E” value ([1]; buffer L arginine 1.44 mg/ml) was 13.7% and the “Impurity D” value [1, 3] was 0.22%. For the same molecule, the “Impurity E” value [1, 3] was 9.9%, the “Impurity D” value [1, 4] was 0.19% and the “Impurity E” value [1, 4] was 11.3%. The “Impurity D” value [1, 5] was 0.17%, the “Impurity E” value [1, 5] was 15.2% and the “Impurity D” value [1, 6] was 0.22%. The “Impurity E” value [1, 6] was 8.2%, the “Impurity D” value [1, 7] was 0.23% and the “Impurity E” value [1, 7] was 8.4%. For the same molecule, the “Impurity D” value [1, 8] was 0.20% and the “Impurity E” value [1, 8] was 7.5%.
In the case of C[C@H](N[C@@H](CCc1ccccc1)C(=O)O)C(=O)N1[C@H](C(=O)O)C[C@@H]2CCC[C@@H]21 [ramiprilat], the “potency as an ACE inhibitor relative to the parent compound ramipril” value ([2]; compared with ramipril) is listed as “up to 6 times”.
In the case of ramipril diketopiperazine, the “activity as an ACE inhibitor” value [2] is listed as “not active”.
